Data set [1] can be described thus: Hepatic intrinsic clearance in liver microsomes. The format is in vitro ADME. The settings on record: human, pH 7.4, human liver microsomes. The procedure: To 500 μl of 200 mM Na^+K^+phosphate buffer (pH 7.4), 100 μl of 1 mM EDTA solution was added followed by 100 μl of 2 mg protein/ml human liver microsomes. A 10 μl aliquot of test compound (20 mM stock in 50% acetonitrile) was diluted further with 40 μl of H2O (total assay volume […]. Assay mixture is incubated for 5 minutes at 37° C. The assay was initiated by addition of 250 μl of 4 mM NADPH solution. Incubation was continued at 37° C. Separate reaction mixtures were prepared for 0, 5, 10, 20, and 30 min durations. Individual reactions were halted by addition of 150 μl of 100% acetonitrile. Internal standard (10 μl of 100 ng/ml diazepam solution) was added. Concentration of the test compound in each separate reaction was measured using LC/MS/MS and a standard curve for the test compound according to standard procedures.
The hepatic intrinsic clearance in liver microsome was determined by the following procedure described by Davies and Morris (Davies, B. and Morris, T. (19930) Physiological parameters in laboratory animals and humans. Pharm Res. 10:1093-1095) detailing the relationship of in vitro clearance to physiological parameters in animals and human subjects.
The amount of compound remaining at each time point was expressed relative to the amount present in the initial (0 min) incubation. The relationship of relative amount vs. time was used to determine the half life of the compound in the microsome assay. The concentration independent rate constant, k1, was determined from rectangular hyperbolic fit:
where T is time (in minutes), from the relationship of relative amount vs. time. Alternatively, k1 was determined from a transform of the equation, where
Conversion to in vivo clearance was obtained from the relation (Davies and Morris, 1993):
where v=velocity of metabolism, [S] is the concentration of the compound, and volumes are expressed in mL.
(Microsomes from liver hold many membrane-bound enzymes, among them those of drug oxidation.)

Data set [2] addresses T1, CYP3A4 (Homo sapiens, UniProt P08684).
T1 construct: host or cells: human liver microsomes
Nature of the data set: CYP3A4 inhibition (midazolam metabolism in human liver microsomes). The data set is classed as in vitro ADME. The settings on record: substrate midazolam. As for the experimental part:
To evaluate the drug-drug interaction potential for compounds, the potency to inhibit the major metabolic cytochrome CYP450 isoform 3A4 was assessed. The inhibition constant Ki was determined for inhibition of the metabolism of midazolam, a CYP3A4 substrate.
CYP3A4 Ki assays were performed following a recently published protocol with slight modifications (Di, L., Kerns, E. H., Li, S. Q., and Carter, G. T. (2007) Comparison of cytochrome P450 inhibition assays for drug discovery using human liver microsomes with LC-MS, rhCYP450 isozymes with fluorescence, and double cocktail with LC-MS. International Journal of Pharmaceutics 335: 1-11). The P450 inhibition assay was performed in 96-well plates at 37.2° C. in a shaking incubator. The compounds were diluted from 5 mM stocks in 100% DMSO and incubated at seven final concentrations from 0.078 to 10 μM (0.1% DMSO in each final incubation), with human liver microsomes (HLM) at a final protein concentration of 0.1 mg/mL protein and a substrate concentration ranging from 1.25 to 10 μM.
The assay was standardized for both phosphate buffer (100 mM, pH 7.4) and the NADPH regenerating system (MgCl2, 3.3 mM; G6P, 3.3 mM; G6PD, 1 U/ml; NADP+, 1.3 mM). Eight replicate control samples (0.1% DMSO, no compound) were prepared. Assays (200 μL) were set up by mixing HLM+substrate stock, 10 μL of test article in 2% DMSO, and the substrate before initiating the reaction with the addition of the regenerating system mixture. Reactions were quenched following incubation for 20, 30 and 40 minutes as described following.
After incubation for the specified time in a humidified shaking incubator, 20 μL of the reaction mixture was removed and the reactions were terminated by adding 200 μL of cold acetonitrile. Samples were centrifuged at 1000×g for 15 minutes in Solvinert filter plate. The receptor plate was dried via speed vacuum at 40° C. The sample was reconstituted with a reconstitution buffer composed of 10% acetonitrile, 10% DMSO, 80% H2O with an internal standard added at a concentration of 100 ng/ml. MS-Analysis was completed using LC-MS/MS. Formation of 1′-hydroxymidazolam was measured by monitoring a specific SRM (342>203) transition for the CYP3A4 metabolite.
Data were expressed as the relative quantity of midazolam metabolite relative to control incubations. Initial velocities were obtained by multiplying the relative quantity by the initial substrate concentration and dividing by the incubation duration. Data were transformed to inverse of inivital velocity and expressed vs. inhibitor concentration [I] for determination of Ki by the Dixon method (Dixon, M. (1953) Biochemical Journal 55: 170-171) using where intercept [I]=−Ki was determined at multiple substrate concentrations.

Data set [3] deals with memapsin 2 (Homo sapiens, UniProt P56817). The experiment in a line: Inhibition of memapsin 2 beta-secretase activity (fluorogenic substrate FS-2). The settings on record: pH 4, 37° C., read-out: M2 Ki. The format is biochemical. In short, it runs like this:
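Memapsin 2 pre-incubated with compound for 20 min at pH 4, 37° C. Reaction started with fluorogenic substrate FS-2, […], derived from Swedish-variant APP beta-secretase site; inhibition measured from fluorescence.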

For data set [4], the target named is T2, memapsin 2 (Cricetulus griseus, UniProt G3IAK4).
T2 construct: endogenous in cells; host or cells: Chinese hamster ovary cells over-expressing human APP695 (London + Swedish)
Nature of the data set: Cellular Aβ IC50 determination (Aβ40 sandwich ELISA). The settings on record: CHO cells over-expressing human APP695 with London and Swedish mutations, 24 h, read-out: M2 IC50. The data set is classed as cell-based, Chinese hamster. In short, it runs like this:
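CHO cells overexpressing human APP695 (London and Swedish mutations) treated 48 h post-seeding with serially diluted compounds (top near 4 μM, 0.4% DMSO), 24 h at 37° C, 5% CO2. Medium Aβ40 measured by sandwich ELISA; levels relative to control fitted to 4-parameter IC50 model.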
On the technique in general: In an ELISA, binding on a coated surface is turned into a signal by an enzyme label.

Setting [5] is: in vitro clearance, read-out: HLM CL.
Where [6] appears, read: read-out: hepatic intrinsic clearance in liver microsomes (HLMCL).

The text below walks through data of patent US20120214802A1, “PYRROLIDINE COMPOUNDS WHICH INHIBIT BETA-SECRETASE ACTIVITY AND METHODS OF USE THEREOF” (priority 2009, published 2012).

As a reminder, the IC50 is the concentration that inhibits the measured activity by half.

The structures appear in SMILES notation. Several values for one entry are separate records, joined by “and”; a condition that tells them apart may be missing. Equal values may be shown once. Read-outs that look alike come from different tables or passages of the source. Some results are limits rather than exact numbers.

T2 sequence (G3IAK4 22-501): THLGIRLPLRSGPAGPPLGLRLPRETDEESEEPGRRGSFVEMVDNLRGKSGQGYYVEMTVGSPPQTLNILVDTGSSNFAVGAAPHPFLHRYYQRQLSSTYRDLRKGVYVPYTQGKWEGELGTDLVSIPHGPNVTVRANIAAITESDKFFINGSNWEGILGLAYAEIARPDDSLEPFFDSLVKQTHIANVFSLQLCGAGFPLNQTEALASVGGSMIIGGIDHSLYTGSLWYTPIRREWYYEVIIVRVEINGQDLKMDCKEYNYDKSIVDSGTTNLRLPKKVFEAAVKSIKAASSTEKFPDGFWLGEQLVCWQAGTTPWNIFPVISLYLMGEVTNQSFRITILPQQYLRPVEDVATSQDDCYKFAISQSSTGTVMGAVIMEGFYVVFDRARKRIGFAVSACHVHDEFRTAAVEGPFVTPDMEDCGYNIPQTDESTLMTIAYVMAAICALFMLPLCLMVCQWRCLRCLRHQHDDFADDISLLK
Sequence of memapsin 2 (Homo sapiens, UniProt P56817) (P56817 46-501): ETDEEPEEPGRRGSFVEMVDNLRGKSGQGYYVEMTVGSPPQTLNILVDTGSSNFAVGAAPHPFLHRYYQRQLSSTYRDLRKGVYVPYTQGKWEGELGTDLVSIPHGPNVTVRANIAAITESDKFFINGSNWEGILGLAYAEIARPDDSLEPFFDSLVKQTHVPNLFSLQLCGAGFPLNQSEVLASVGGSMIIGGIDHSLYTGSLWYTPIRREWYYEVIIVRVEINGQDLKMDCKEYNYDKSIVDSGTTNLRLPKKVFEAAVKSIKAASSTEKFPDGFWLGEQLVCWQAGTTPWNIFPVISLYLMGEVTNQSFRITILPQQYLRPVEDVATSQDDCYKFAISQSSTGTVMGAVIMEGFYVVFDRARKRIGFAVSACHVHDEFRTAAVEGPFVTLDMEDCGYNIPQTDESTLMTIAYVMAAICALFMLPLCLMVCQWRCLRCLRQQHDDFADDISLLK
T1 sequence (P08684 whole entry): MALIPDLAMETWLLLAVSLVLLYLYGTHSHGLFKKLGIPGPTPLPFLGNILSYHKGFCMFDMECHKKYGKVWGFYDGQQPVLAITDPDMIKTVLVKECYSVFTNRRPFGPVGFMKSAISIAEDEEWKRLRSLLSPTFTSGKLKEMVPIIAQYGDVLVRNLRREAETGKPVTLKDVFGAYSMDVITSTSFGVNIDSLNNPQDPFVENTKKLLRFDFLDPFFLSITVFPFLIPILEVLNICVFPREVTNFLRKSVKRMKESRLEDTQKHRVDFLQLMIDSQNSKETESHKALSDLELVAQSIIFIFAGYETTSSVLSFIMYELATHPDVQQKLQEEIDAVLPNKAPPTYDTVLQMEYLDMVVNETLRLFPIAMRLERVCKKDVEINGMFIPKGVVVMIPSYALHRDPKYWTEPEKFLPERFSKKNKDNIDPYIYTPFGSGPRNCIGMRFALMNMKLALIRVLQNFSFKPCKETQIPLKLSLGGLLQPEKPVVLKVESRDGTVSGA

On to `Cc1csc([C@H]2CCCN2C(=O)c2cc(C(=O)N[C@@H](Cc3ccccc3)[C@H](O)[C@H]3CCCN3)cc(-n3cccc3)c2)n1` [1-16, N-((1R,2S)-1-hydroxy-3-phenyl-1-((R)-pyrrolidin-2-yl)propan-2-yl)-3-((R)-2-(4-methylthiazol-2-yl)pyrrolidine-1-carbonyl)-5-(1H-pyrrol-1-yl)benzamide], for which the CLint scaled at 200 μM in data set [1] (setting [5]) was below 400 mL/min/kg. In addition, the figures for the Ki in data set [2] (read-out: CYP 3A4Ki) and in data set [3] were 1000 to 5000 nM and below 250 nM, respectively. The half-inhibitory concentration (IC50) in data set [4] fell in the range of 500 to 1000 nM.
The corresponding values for `Cc1coc([C@H]2CCCN2C(=O)c2cc(C(=O)N[C@@H](Cc3ccccc3)[C@H](O)[C@H]3CCCN3)cc(-c3ncco3)c2)n1` [1-17, N-((1R,2S)-1-hydroxy-3-phenyl-1-((R)-pyrrolidin-2-yl)propan-2-yl)-3-((R)-2-(4-methyloxazol-2-yl)pyrrolidine-1-carbonyl)-5-(oxazol-2-yl)benzamide] are below 400 mL/min/kg, above 10000 nM, below 250 nM and below 500 nM.
On to `Cc1coc([C@H]2CCCN2C(=O)c2cccc(C(=O)N[C@@H](Cc3ccccc3)[C@H](O)[C@H]3C[C@@H](OCc4ccccc4)CN3)c2)n1` [1-18, N-((1R,2S)-1-((2R,4R)-4-(benzyloxy)pyrrolidin-2-yl)-1-hydroxy-3-phenylpropan-2-yl)-3-((R)-2-(4-methyloxazol-2-yl)pyrrolidine-1-carbonyl)benzamide], for which the CLint scaled at 200 μM in data set [1] (setting [5]) is below 400 mL/min/kg; in data set [1] (setting [6]), around 337 mL/min/kg. The Ki was 11500 nM in data set [2]; above 10000 nM in data set [2] (read-out: CYP 3A4Ki); ~50.4 nM and < 250 nM and 50.4 nM in data set [3]. In addition, the IC50 in data set [4] was below 500 nM.
As to `Cc1csc([C@H]2CCCN2C(=O)c2cc(F)cc(C(=O)N[C@@H](Cc3ccccc3)[C@H](O)[C@H]3CCCN3)c2)n1` [1-32, 3-fluoro-N-((1R,2S)-1-hydroxy-3-phenyl-1-((R)-pyrrolidin-2-yl)propan-2-yl)-5-((R)-2-(4-methylthiazol-2-yl)pyrrolidine-1-carbonyl)benzamide], the CLint scaled at 200 μM in data set [1] (setting [5]) was below 400 mL/min/kg. In addition, the Ki in data set [2] (read-out: CYP 3A4Ki) was 5000 to 10000 nM; in data set [3] it was below 250 nM. In addition, the IC50 in data set [4] was above 1000 nM.
The corresponding values for `Cc1csc([C@H]2CCCN2C(=O)c2cccc(C(=O)N[C@@H](Cc3ccccc3)[C@H](O)[C@H]3CCCN3)c2)n1` [1-40, N-((1R,2S)-1-hydroxy-3-phenyl-1-((R)-pyrrolidin-2-yl)propan-2-yl)-3-((R)-2-(4-methylthiazol-2-yl)pyrrolidine-1-carbonyl)benzamide] are below 400 mL/min/kg, 5000 to 10000 nM, below 250 nM and 500 to 1000 nM.
The matching figures for `Cc1csc(CN(C)C(=O)c2cccc(C(=O)N[C@@H](Cc3cc(F)cc(F)c3)[C@H](O)[C@H]3CCCN3)c2)n1` [1-41, N1-((1R,2S)-3-(3,5-difluorophenyl)-1-hydroxy-1-((R)-pyrrolidin-2-yl)propan-2-yl)-N3-methyl-N3-((4-methylthiazol-2-yl)methyl)isophthalamide]: below 400 mL/min/kg, above 10000 nM, below 250 nM and above 1000 nM.
The corresponding values for `Cc1csc([C@H]2CCCN2C(=O)c2cc(C(=O)N[C@@H](Cc3ccccc3)[C@H](O)CNCc3cncc(C(C)C)c3)cc(-c3ccco3)c2)n1` [2-2, 3-(furan-2-yl)-N-((2S,3R)-3-hydroxy-4-((5-isopropylpyridin-3-yl)methylamino)-1-phenylbutan-2-yl)-5-((R)-2-(4-methylthiazol-2-yl)pyrrolidine-1-carbonyl)benzamide, reference compound] are above 700 mL/min/kg, below 1000 nM, below 250 nM and below 500 nM.
Regarding `Cc1cc(C(=O)N[C@@H](Cc2ccccc2)[C@H](O)CNCc2cncc(C(C)(C)C)c2)cc(C(=O)N2CCC[C@@H]2c2nc(C)co2)c1` [2-3, N-((2S,3R)-4-((5-tert-butylpyridin-3-yl)methylamino)-3-hydroxy-1-phenylbutan-2-yl)-3-methyl-5-((R)-2-(4-methyloxazol-2-yl)pyrrolidine-1-carbonyl)benzamide, reference compound], the CLint scaled at 200 μM was above 700 mL/min/kg in data set [1] (setting [5]) and above 1000 mL/min/kg in data set [1] (setting [6]). Besides, the Ki was 717 nM in data set [2], below 1000 nM in data set [2] (read-out: CYP 3A4Ki) and below 250 nM in data set [3]. Besides, the IC50 in data set [4] is below 500 nM.
Take `Cc1coc([C@H]2CCCN2C(=O)c2cccc(C(=O)N[C@@H](Cc3ccccc3)[C@H](O)CNCc3cncc(C(C)(C)C)c3)c2)n1` [2-4, N-((2S,3R)-4-((5-tert-butylpyridin-3-yl)methylamino)-3-hydroxy-1-phenylbutan-2-yl)-3-((R)-2-(4-methyloxazol-2-yl)pyrrolidine-1-carbonyl)benzamide, reference compound]: the CLint scaled at 200 μM in data set [1] (setting [5]) was above 700 mL/min/kg. Also, the figures for the Ki in data set [2] (read-out: CYP 3A4Ki) and in data set [3] were below 1000 nM and below 250 nM, respectively. Further, the half-inhibitory concentration (IC50) in data set [4] was below 500 nM.
The matching figures for `CCn1cc(CNC[C@@H](O)[C@H](Cc2ccccc2)NC(=O)c2cc(C)cc(C(=O)N3CCC[C@@H]3c3nc(C)co3)c2)cn1` [2-5, N-((2S,3R)-4-((1-ethyl-1H-pyrazol-4-yl)methylamino)-3-hydroxy-1-phenylbutan-2-yl)-3-methyl-5-((R)-2-(4-methyloxazol-2-yl)pyrrolidine-1-carbonyl)benzamide, reference compound]: above 700 mL/min/kg, 1000 to 5000 nM, below 250 nM and below 500 nM.
The matching figures for `Cc1coc([C@H]2CCCN2C(=O)c2cc(CF)cc(C(=O)N[C@@H](Cc3ccccc3)[C@H](O)CNCc3cccc(C(C)(C)C)c3)c2)n1` [2-7, N-((2S,3R)-4-(3-tert-butylbenzylamino)-3-hydroxy-1-phenylbutan-2-yl)-3-(fluoromethyl)-5-((R)-2-(4-methyloxazol-2-yl)pyrrolidine-1-carbonyl)benzamide, reference compound]: above 700 mL/min/kg, 1000 to 5000 nM, below 250 nM and below 500 nM.
